These results are taken from PMC3616073, “Engineering Agatoxin, a Cystine-Knot Peptide from Spider Venom, as a Molecular Probe for In Vivo Tumor Imaging” (PLoS ONE, 2013).

Series [1] has as its target T1, αvβ3 integrin on K562-αvβ3 cells (Homo sapiens, UniProt P05106+P06756).
T1 construct: expressed in transfected cells; host or cells: K562 leukemia cells (courtesy of S. Blystone)
Description: Competition binding assay on K562-αvβ3 cells (FLAG-AgRP 7A competitor, flow cytometry). Conditions: competition with 0.5 nM FLAG-AgRP 7A, 5×10^4 K562-αvβ3 cells in IBB, 4 hr at 4 °C, anti-FLAG flow cytometry, mean of three experiments ± SD, read-out: IC50 (relative binding affinity to K562-αvβ3 cells). The text has this:
Competition binding assays were used to measure the relative affinities of the AgTx 7C variants and AgRP 7C to K562 leukemia cells transfected to express high levels of αvβ3 integrin [50]. […] FLAG-AgRP 7A contains an N-terminal FLAG epitope tag (DYKDDDDK), which allows detection of cell surface binding by flow cytometry using a fluorescently labeled anti-FLAG antibody.
Figure 3 Engineered AgTx 7C variants bind to K562-αvβ3 cells with similar IC50 values. Varying concentrations of AgRP 7C and AgTx 7C variants were incubated with FLAG-AgRP 7A and allowed to compete for binding to integrin receptors expressed on the surface of K562-αvβ3 cells. Representative competition binding curves are shown, and are plotted as knottin concentration versus the fraction of FLAG-AgRP 7A bound. IC50 values reported as mean of three experiments ± SD. TEXT PRINTED IN THE PICTURE: AgRP 7C: IC50 (nM): 2.2 ± 1.0 | AgTx 7C ΔR21: IC50 (nM): 2.3 ± 0.5 | AgTx 7C P22G R24I: IC50 (nM): 8.1 ± 1.6 | AgTx 7C ΔR21 P22G R24I: IC50 (nM): 5.1 ± 1.6 | AgTx 7C ΔR9: IC50 (nM): 2.5 ± 0.4
Competition binding assays were performed on K562 leukemia cells transfected to express high levels of αvβ3 integrins. Varying concentrations of AgRP 7C and AgTx variants were incubated with 5×10^4 K562-αvβ3 cells in IBB for 4 hr at 4 °C, along with a constant concentration (0.5 nM) of recombinantly expressed FLAG-AgRP 7A knottin as a competitor. FLAG-AgRP 7A binds with high affinity to αvβ3 integrin and contains an N-terminal epitope tag (DYKDDDDK), allowing cell surface binding to be detecting using an anti-FLAG antibody. Care was taken to allow adequate time for equilibrium binding and to avoid ligand depleting conditions. […] Cells were washed with BPBS and analyzed by flow cytometry on a FACSCalibur instrument (BD Biosciences), and data was quantified using FlowJo software (TreeStar). IC50 values were determined by nonlinear regression analysis using KaleidaGraph (Synergy Software). […]
A general note: Flow cytometry measures light scatter and fluorescence of single cells or particles in a stream.

Series [2] deals with T2, αvβ3 integrins expressed on U87MG glioblastoma cells (Homo sapiens, UniProt P05106+P06756).
T2 construct: U87MG glioblastoma cells, which express high levels of αvβ3 integrin receptors; host or cells: U87MG human glioblastoma cells
The series can be described thus: Competition binding assay on U87MG glioblastoma cells (FLAG-AgRP 7A competitor, flow cytometry). The note with it: competition with 5 nM FLAG-AgRP 7A, 5×10^4 U87MG cells in IBB, 4 hr at 4 °C, mean of three experiments ± SD. The text has this:
For simplicity, we chose to move forward with AgTx 7C ΔR21 for in vivo molecular imaging studies. To visualize tumor targeting and tissue biodistribution, we conjugated the near-infrared dye Alexa Fluor 680 (AF680) to the N-terminal amino group of AgTx 7C ΔR21 (Fig. S3A). We also synthesized AF680-labeled versions of AgRP 7C and EETI 2.5F for comparison studies. AF680-labeled EETI RDG, which contains a scrambled integrin recognition sequence, [30], served as a non-binding control. AF680-labeled knottin peptides were purified by RP-HPLC and had the expected masses for the addition of one dye molecule (Fig. S3B, C). Competition binding assays were used to determine if AF680 conjugation affected integrin recognition. FLAG-AgRP 7A was used to compete for knottin binding to U87MG human glioblastoma cells (Fig. 4).
Figure 4 Unlabeled and AF680-labeled knottins bind U87MG cells with high affinity. […]
Competition binding assays were performed on K562 leukemia cells transfected to express high levels of αvβ3 integrins. […] Cells were washed with BPBS and analyzed by flow cytometry on a FACSCalibur instrument (BD Biosciences), and data was quantified using FlowJo software (TreeStar). IC50 values were determined by nonlinear regression analysis using KaleidaGraph (Synergy Software). […]

On the set-up of series [3]: method as in PMID 20124048, PMID 19276378. The note with it: cited from earlier work; for Stability in serum and blood: radiolabeled probes of earlier studies.

Like-named read-outs stand apart in the source and are kept apart here. Where a SMILES comes first, the peptide text is derived from it. Bridges are numbered along the chain shown (N, C = ends).

One may read the IC50 as the concentration that gives 50% inhibition.

In the case of `CC[C@H](C)[C@@H]1NC(=O)[C@@H](NC(=O)CN)CSSC[C@@H]2NC(=O)[C@@H]3CSSC[C@@H](C(=O)N[C@H](C(=O)O)[C@@H](C)O)NC(=O)[C@H](CCC(=O)O)NC(=O)[C@@H]4CSSC[C@H](NC(=O)[C@H]([C@@H](C)CC)NC(=O)[C@H](CSSC[C@H](NC(=O)[C@H](CCCNC(=N)N)NC(=O)CNC(=O)[C@H](Cc5ccc(O)cc5)NC(=O)[C@H](CC(=O)O)NC(=O)[C@H](CCC(=O)O)NC(=O)[C@H](C)NC1=O)C(=O)N[C@@H]([C@@H](C)O)C(=O)N[C@@H](Cc1c[nH]c5ccccc15)C(=O)NCC(=O)NCC(=O)N[C@@H]([C@@H](C)O)C(=O)N1CCC[C@H]1C(=O)N3)NC(=O)CNC(=O)[C@H](CCCNC(=N)N)NC(=O)CNC(=O)[C@H](CCCNC(=N)N)NC2=O)C(=O)N[C@@H](Cc1ccc(O)cc1)C(=O)NCC(=O)N[C@@H](CCCNC(=N)N)C(=O)NCC(=O)N[C@@H](CC(=O)O)C(=O)N[C@@H](CC(N)=O)C(=O)N[C@@H](CC(=O)O)C(=O)N[C@@H](CC(C)C)C(=O)N[C@@H](CCCNC(=N)N)C(=O)N4` [AgTx 7C P22G R24I] (H-GCIAEDYGRCTWGGTPCCRGRGCICYGRGDNDLRCECT-OH; disulfide 2-18, 10-23, 17-37, 25-35), the IC50 in series [1] came to 8.1 ± 1.6 nM.

Consider `CC[C@H](C)[C@@H]1NC(=O)[C@@H](NC(=O)CN)CSSC[C@@H]2NC(=O)[C@@H]3CSSC[C@@H](C(=O)N[C@H](C(=O)O)[C@@H](C)O)NC(=O)[C@H](CCC(=O)O)NC(=O)[C@@H]4CSSC[C@H](NC(=O)[C@H](CCCNC(=N)N)NC(=O)[C@H](CSSC[C@H](NC(=O)[C@H](CCCNC(=N)N)NC(=O)CNC(=O)[C@H](Cc5ccc(O)cc5)NC(=O)[C@H](CC(=O)O)NC(=O)[C@H](CCC(=O)O)NC(=O)[C@H](C)NC1=O)C(=O)N[C@@H]([C@@H](C)O)C(=O)N[C@@H](Cc1c[nH]c5ccccc15)C(=O)NCC(=O)NCC(=O)N[C@@H]([C@@H](C)O)C(=O)N1CCC[C@H]1C(=O)N3)NC(=O)[C@@H]1CCCN1C(=O)CNC(=O)[C@H](CCCNC(=N)N)NC2=O)C(=O)N[C@@H](Cc1ccc(O)cc1)C(=O)NCC(=O)N[C@@H](CCCNC(=N)N)C(=O)NCC(=O)N[C@@H](CC(=O)O)C(=O)N[C@@H](CC(N)=O)C(=O)N[C@@H](CC(=O)O)C(=O)N[C@@H](CC(C)C)C(=O)N[C@@H](CCCNC(=N)N)C(=O)N4` [AgTx 7C ΔR21] (H-GCIAEDYGRCTWGGTPCCRGPCRCYGRGDNDLRCECT-OH; disulfide 2-18, 10-22, 17-36, 24-34), for which the IC50 in series [1] was 2.3 ± 0.5 nM; in series [2] (unlabeled knottin, read-out: IC50, Unlabeled), 10 ± 1 nM.

In the case of `CC(C)C[C@@H]1NC(=O)[C@@H]2CSSC[C@@H]3NC(=O)[C@H]([C@@H](C)O)NC(=O)[C@H](C)NC(=O)[C@H](C)NC(=O)[C@@H]4CCCN4C(=O)[C@H](CC(=O)O)NC(=O)[C@H](CSSC[C@H](NC(=O)CN)C(=O)N[C@@H](C(C)C)C(=O)N[C@@H](CCCNC(=N)N)C(=O)N[C@@H](CC(C)C)C(=O)N[C@@H](Cc4c[nH]cn4)C(=O)N[C@@H](CCC(=O)O)C(=O)N[C@@H](CO)C(=O)N2)NC(=O)[C@H](CSSC[C@@H](C(=O)N[C@@H](CCCNC(=N)N)C(=O)O)NC(=O)[C@H](Cc2ccc(O)cc2)NC(=O)[C@@H]2CSSC[C@H](NC(=O)[C@H](Cc4ccc(O)cc4)NC3=O)C(=O)N[C@@H](Cc3ccc(O)cc3)C(=O)NCC(=O)N[C@@H](CCCNC(=N)N)C(=O)NCC(=O)N[C@@H](CC(=O)O)C(=O)N[C@@H](CC(N)=O)C(=O)N[C@@H](CC(=O)O)C(=O)N[C@@H](CC(C)C)C(=O)N[C@@H](CCCNC(=N)N)C(=O)N2)NC(=O)[C@@H]2CCCN2C(=O)[C@H](C(C)C)NC(=O)[C@H](CCC(N)=O)NC(=O)[C@H](CCC(N)=O)NC(=O)CNC1=O` [AgRP 7C] (H-GCVRLHESCLGQQVPCCDPAATCYCYGRGDNDLRCYCR-OH; disulfide 2-17, 9-23, 16-37, 25-35), the “Metabolic breakdown in the liver, kidneys, and tumor” value in series [3] (compared to EETI 2.5F) is reported as “higher levels of metabolic breakdown”. Moreover, the “Stability in serum and blood” value in series [3] was “remarkably stable in serum and blood”.

On to `CC(C)C[C@@H]1NC(=O)[C@@H]2CSSC[C@@H](C(=O)NCC(=O)O)NC(=O)[C@H](Cc3ccccc3)NC(=O)CNC(=O)[C@H](CC(N)=O)NC(=O)[C@@H]3CCCN3C(=O)CNC(=O)[C@@H]3CSSC[C@H](NC(=O)[C@H]([C@@H](C)O)NC(=O)[C@H](CC(C)C)NC(=O)[C@@H]4CCCN4C(=O)[C@@H]4CCCN4C(=O)[C@H](CC(N)=O)NC(=O)[C@H](CC(=O)O)NC(=O)CNC(=O)[C@H](CCCNC(=N)N)NC(=O)[C@@H]4CCCN4C(=O)[C@H](CCCNC(=N)N)NC(=O)[C@@H]4CCCN4C(=O)[C@@H](NC(=O)CN)CSSC[C@H](NC(=O)CNC(=O)[C@H](C)NC1=O)C(=O)N[C@@H](C(C)C)C(=O)N3)C(=O)N[C@@H](CO)C(=O)N[C@@H](CCC(N)=O)C(=O)N[C@@H](CC(=O)O)C(=O)N[C@@H](CO)C(=O)N[C@@H](CC(=O)O)C(=O)N2` [EETI 2.5F] (H-GCPRPRGDNPPLTCSQDSDCLAGCVCGPNGFCG-OH; disulfide 2-24, 14-26, 20-32), for which the “Stability in serum and blood” value in series [3] was “remarkably stable in serum and blood”.

Take `CC[C@H](C)[C@@H]1NC(=O)[C@@H](NC(=O)CN)CSSC[C@@H]2NC(=O)[C@@H]3CSSC[C@@H](C(=O)N[C@H](C(=O)O)[C@@H](C)O)NC(=O)[C@H](CCC(=O)O)NC(=O)[C@@H]4CSSC[C@H](NC(=O)[C@H]([C@@H](C)CC)NC(=O)[C@H](CSSC[C@H](NC(=O)[C@H](CCCNC(=N)N)NC(=O)CNC(=O)[C@H](Cc5ccc(O)cc5)NC(=O)[C@H](CC(=O)O)NC(=O)[C@H](CCC(=O)O)NC(=O)[C@H](C)NC1=O)C(=O)N[C@@H]([C@@H](C)O)C(=O)N[C@@H](Cc1c[nH]c5ccccc15)C(=O)NCC(=O)NCC(=O)N[C@@H]([C@@H](C)O)C(=O)N1CCC[C@H]1C(=O)N3)NC(=O)CNC(=O)CNC(=O)[C@H](CCCNC(=N)N)NC2=O)C(=O)N[C@@H](Cc1ccc(O)cc1)C(=O)NCC(=O)N[C@@H](CCCNC(=N)N)C(=O)NCC(=O)N[C@@H](CC(=O)O)C(=O)N[C@@H](CC(N)=O)C(=O)N[C@@H](CC(=O)O)C(=O)N[C@@H](CC(C)C)C(=O)N[C@@H](CCCNC(=N)N)C(=O)N4` [AgTx 7C ΔR21 P22G R24I] (H-GCIAEDYGRCTWGGTPCCRGGCICYGRGDNDLRCECT-OH; disulfide 2-18, 10-22, 17-36, 24-34): the IC50 in series [1] worked out at 5.1 ± 1.6 nM.

In the case of “AF680-labeled EETI 2.5F: EETI 2.5F with one Alexa Fluor 680 dye at the N-terminus (CPRPRGDNPPLTCKQDSDCLAGCVCGPNGFCG; Alexa Fluor 680 on N-terminal amine; 3 disulfides)”, the IC50 in series [2] (AF680-labeled knottin, read-out: IC50, AF680 labeled) is 4 ± 0.2 nM.
